Tests used:
Assay in all cases: relative viability (nuclei count vs DMSO), 5 days (fraction); higher = more cells survive
XMD13-2 = compound: C1CC1C(=O)NC2=NNC3=C2C=CC(=C3)C4=CC(=CC=C4)C(=O)NC5CC5 [XMD13-2]
Summary of the method: (§1)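 After an overnight hold at 37 °C, lung cancer cell lines in 1536-well plates were pinned with five library-drug doses (not always all listed), each √10 from the next, on vehicle-anchored plates. The cells stayed 5 days without fresh medium, then a one-step fix, permeabilisation and Hoechst stain preceded 4× imaging and MetaXpress nuclear counts. A plate passed only with control CV under 25% and at least one doubling. Viability is the median, over plates, of treated-well nuclei relative to vehicle-well nuclei.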

ALW-II-49-7 = compound: Cc1ccc(C(=O)Nc2cccc(C(F)(F)F)c2)cc1Nc1cncc(C(N)=O)c1 [ALW-II-49-7]
Summary of the method: as §1

Dasatinib = compound: Cc1nc(Nc2ncc(C(=O)Nc3c(C)cccc3Cl)s2)cc(N2CCN(CCO)CC2)n1 [Dasatinib]
Summary of the method: as §1

Cell Line | relative viability (XMD13-2; 0.05 µM) | relative viability (XMD13-2; 0.1581 µM) | relative viability (XMD13-2; 0.5 µM) | relative viability (XMD13-2; 1.581 µM) | relative viability (XMD13-2; 5 µM) | relative viability (ALW-II-49-7; 0.08 µM) | relative viability (ALW-II-49-7; 0.253 µM) | relative viability (ALW-II-49-7; 0.8 µM) | relative viability (ALW-II-49-7; 2.53 µM) | relative viability (ALW-II-49-7; 8 µM) | relative viability (Dasatinib; 0.005 µM) | relative viability (Dasatinib; 0.01581 µM) | relative viability (Dasatinib; 0.05 µM) | relative viability (Dasatinib; 0.075 µM, anchor plate) | relative viability (Dasatinib; 0.1581 µM) | relative viability (Dasatinib; 0.5 µM)
PC-3 [JPC-3] | 1.06 | 1.05 | 1.06 | 1.02 | 1.17 | 1.08 | 1.04 | 1.04 | 1.13 | 0.971 | 1.08 | 1.01 | 1.04 | 0.971 | 1.02 | 0.59
SW 1573 | 1.08 | 0.998 | 1.09 | 0.941 | 0.874 | 0.976 | 1.12 | 1.04 | 1.05 | 0.938 | 0.931 | 0.915 | 0.839 | 0.517 | 0.672 | 0.564
NCI-H2228 | 1.16 | 0.99 | 1.27 | 1.06 | 1.17 | 1.09 | 0.783 | 0.735 | 0.904 | 0.85 | 0.994 | 0.869 | 0.94 | 0.535 | 0.645 | 0.442
NCI-H1650 | 1.08 | 0.936 | 1.17 | 0.951 | 0.907 | 0.854 | 0.789 | 0.836 | 0.985 | 0.985 | 0.868 | 0.769 | 0.6 | 0.336 | 0.388 | 0.338
NCI-H358 | 1.18 | 0.918 | 1.06 | 0.928 | 0.704 | 0.891 | 0.956 | 0.924 | 1.01 | 1.07 | 0.867 | 0.695 | 0.593 | 0.165 | 0.248 | 0.163
NCI-H1792 | 1.09 | 0.907 | 0.925 | 0.808 | 1.12 | 0.679 | 0.873 | 0.915 | 0.73 | 0.654 | 0.844 | 0.773 | 0.643 | 0.827 | 0.653 | 0.277
COR-L 105 | 1.25 | 1.08 | 0.911 | 0.947 | 0.858 | 0.822 | 1.05 | 0.968 | 0.942 | 0.893 | 0.847 | 0.692 | 0.625 | 0.386 | 0.39 | 0.326
LU99A | 1.05 | 1.05 | 1.01 | 1.03 | 0.927 | 0.816 | 1.1 | 0.902 | 0.94 | 0.95 | 0.807 | 0.629 | 0.896 | 0.539 | 0.663 | 0.48
H3255 | 1.18 | 0.949 | 0.95 | 0.892 | 0.895 | 1.12 | 0.999 | 1.04 | 0.904 | 0.808 | 0.971 | 1 | 0.881 | 0.402 | 0.812 | 0.433
NCI-H1734 | 1.1 | 0.848 | 1.03 | 0.869 | 0.748 | 0.933 | 1.04 | 1.01 | 0.886 | 0.822 | 0.863 | 0.772 | 0.777 | 0.481 | 0.508 | 0.51
NCI-H650 | 1.1 | 0.963 | 1.04 | 0.845 | 1.03 | 0.992 | 0.997 | 0.841 | 1.03 | 0.647 | 0.876 | 0.936 | 0.861 | 0.475 | 0.712 | 0.5
NCI-H1915 | 1.02 | 0.958 | 1.08 | 0.985 | 1 | 0.993 | 1.01 | 0.945 | 0.85 | 0.544 | 0.966 | 0.987 | 0.903 | 0.315 | 0.492 | 0.256
Calu-6 | 1.05 | 1.08 | 1.07 | 0.99 | 1.04 | 0.952 | 1.03 | 0.947 | 0.891 | 0.869 | 0.895 | 0.766 | 0.712 | – | 0.627 | 0.554
NCI-H2009 | 0.989 | 1.13 | 1.22 | 1.04 | 1.07 | 0.967 | 1.04 | 0.93 | 0.844 | 0.709 | 1.07 | 0.988 | 0.929 | 0.303 | 0.456 | 0.236
NCI-H1651 | 1.06 | 0.95 | 1.03 | 1.02 | 1.04 | 1.09 | 0.923 | 0.956 | 0.952 | 0.943 | 1.01 | 0.902 | 0.91 | 0.391 | 0.817 | 0.758
HOP-62 | 1.04 | 0.955 | 1.1 | 0.953 | 1.02 | 1.1 | 1.03 | 0.941 | 0.82 | 0.786 | 1.06 | 1 | 0.932 | 0.68 | 0.945 | 0.367
CAL-12T | 1.05 | 0.961 | 1.06 | 0.887 | 1.02 | 0.952 | 0.96 | 1.03 | 1.02 | 0.928 | 1.02 | 0.998 | 1.12 | 0.486 | 0.795 | 0.416
LCLC-103H | 1.09 | 0.997 | 0.969 | 0.987 | 1.05 | 0.983 | 0.987 | 0.971 | 0.953 | 0.969 | 0.997 | 0.855 | 0.82 | 0.475 | 0.669 | 0.382
NCI-H3122 | 1.01 | 1 | 1.03 | 1.01 | 1.01 | 1.05 | 0.868 | 1.06 | 1.05 | 1.07 | 1.02 | 1.04 | 1.06 | 0.766 | 1.01 | 0.87
NCI-H1395 | 1.06 | 0.918 | 0.948 | 0.852 | 1 | 0.941 | 0.992 | 1.1 | 0.917 | 0.851 | 0.91 | 1.03 | 0.783 | 0.435 | 0.442 | 0.429
PC-14 | 1.08 | 1.04 | 1.07 | 0.98 | 1.13 | 0.933 | 0.98 | 0.95 | 0.961 | 0.898 | 1.12 | 0.98 | 0.877 | 0.264 | 0.65 | 0.234

Source: the supplement of paper PMC10307832
